Measurements from patent US20230321067A1, “DOSING REGIMEN COMPRISING 3-(1-OXOISOINDOLIN-2-YL)PIPERIDINE-2,6-DIONE DERIVATIVES” (Novartis AG, priority 2020, published 2023).

Legend:
[1] = system: IFNγ production in Teff cells; experiment: IFNγ production in Teff cells (FIG. 2D); assay type: cell-based; settings: 2.5 nM, 25 nM and 2.5 μM vs DMSO
FIZ1 = biological target: T1, FIZ1 (Homo sapiens, UniProt Q96SL8); experiment: Whole cell proteomic analysis in 293T cells and subsequent analyses: FIZ1; assay type: cell-based
T1 construct: endogenous in cells; host or cells: 293T
Experimental: Other potential degradation targets of I-57 were evaluated in 293T cells using whole cell proteomic analysis. […] Subsequent analyses have confirmed that FIZ1 is degraded by about 50% at a 10 μM concentration of I-57 ([I-57 Investigator's Brochure]). […] FIZ1 is expressed in the neural retina where it transcriptionally represses the differentiation of photoreceptors. FIZ1 is also expressed in non-ocular tissues with unknown function.

IKZF2 [2] = biological target: T2, IKZF2 (Homo sapiens, UniProt Q96SW2+Q9UKS7); experiment: Multi-dose PK/PD study in human PBMC adoptive transfer mouse model harboring MDA-MB231 xenografts: IKZF2 expression in human CD4+FOXP3+ regulatory T cells (FIG. 6, 7); assay type: in vivo; set-up: endogenous in cells; host or cells: primary human PBMCs; settings: 14 daily oral doses of 0.3, 1, 3 and 30 mg/kg, hPBMC AdT mouse model
Experimental: FIG. 6 is a pictorial representation of the multi-dose PK/PD study design in the human PBMC adoptive transfer mouse model harboring MDA-MB231 xenografts. Fourteen consecutive daily doses of Compound I-57 was administered at 0.3 mg/kg, 1 mg/kg, 3 mg/kg or 30 mg/kg.
FIG. 7 is a graph showing the change in the IKZF2 expression in human CD4+FOXP3+ regulatory T cells isolated from MDA-MB231 tumor xenografts (Tumor) or blood (Periphery) following 14 daily oral doses of 0.3, 1, 3 and 30 mg/kg Compound I-57 administered to the hPBMC AdT model.

CYP1A2 = CYP1A2 (Homo sapiens, UniProt P05177); experiment: Time-dependent CYP inhibition: CYP1A2; assay type: in vitro ADME; settings: I-57 concentrations of up to 100 μM
CYP3A4 = CYP3A4 (Homo sapiens, UniProt P08684); experiment: Enzyme phenotyping with human recombinant CYPs; assay type: in vitro ADME; settings: human recombinant CYPs in vitro; preliminary assessment
Experimental: In vivo in the dog, very minor amounts of the N-dealkylation product and products derived from hydrolysis of the glutarimide moiety were detected in plasma. While the contribution of CYP-mediated oxidative metabolism to systemic clearance is unknown, a preliminary assessment of the enzymes involved was conducted using human recombinant CYPs in vitro.

[3] = Toxicology studies: CNS and respiratory signs; assay type: in vivo
Description: The non-clinical safety profile of I-57 was established in vitro, and in vivo in rats and cynomolgus monkeys in studies up to 4-weeks duration. Based on the outcome of these studies, QTc interval prolongation was identified as the principal safety signal for I-57. There were other toxicities such as diarrhea and vomiting in monkeys, and mortality, clinical signs and target organ toxicities in rats; however, these occurred at exposures far above those expected to result in clinical activity.

IKZF2 [4] = biological target: T2, IKZF2; experiment: IKZF2 in human Tregs (tumor, blood) by flow cytometry, hPBMC AdT model; assay type: in vivo, NSG mice with human PBMCs; set-up: endogenous in cells; host or cells: human lymphocytes (CD4+FOXP3+ Tregs; total tumor-infiltrating lymphocytes) from healthy-donor PBMC transferred into NSG mice
Experimental: The PK/PD relationship of I-57 was examined in the hPBMC AdT model system. Human PBMCs were adoptively transferred into female NSG mice harboring established MDA-MB231 xenografts (FIG. 6). This model was selected based on the observation that IKZF2 positive Tregs (CD4+FOXP3+) were readily identifiable in peripheral blood and infiltrated in the tumor xenografts.
The impact of I-57 on IKZF2 protein expression in human Tregs in the periphery and infiltrated in MDA-MB231 xenografts was assessed via flow cytometry at multiple time points after the last I-57 dose. […] Maximum effects were generally observed 4-16 h post dose. At a given dose level, the magnitude and duration of IKZF2 reduction in Tregs was generally consistent across tissues (tumor, spleen and blood).
Based on the data from this hPBMC AdT mouse model, unbound I-57 (73% percent plasma binding in the mouse) exposures (AUCinf) of 7, 30, 157 and 3474 ng*h/mL are required to achieve the reduction of IKZF2 positivity (via flow cytometry) in tumor Tregs by 31, 43, 56, and 75%, respectively. The relationship between the magnitude and duration of I-57-mediated IKZF2 degradation and subsequent modulation of therapeutically relevant downstream biology is not yet well understood.

IKZF2 [5] = biological target: T2, IKZF2; experiment: Degradation of prolabel-tagged IKZF2 in HEK293T cells (FIG. 1); assay type: cell-based; set-up: prolabel (ProLabel enzyme-fragment tag); expressed in transfected cells; host or cells: HEK293T; settings: HEK293T cells overexpressing prolabel-tagged target proteins, various concentrations
Description: FIG. 1. is a graph showing the selectivity of Compound I-57 for the degradation of IKZF2 over the other IKAROS family members, IKZF1, IKZF4, and GSPT1 at various concentrations in HEK293T cells overexpressing prolabel-tagged target proteins.

PXR = PXR (Homo sapiens, UniProt O75469); experiment: PXR reporter gene assay (CYP3A induction potential); assay type: cell-based
Description: Based on a PXR reporter gene assay, I-57's induction potential for CYP3A appears to be low.

plasma protein = experiment: Plasma protein binding in vitro, human; assay type: in vitro ADME
Description: The binding to plasma protein of I-57 in vitro was moderate in all species, with an observed difference between rodents (73% in mouse, 76% in rat) and non-rodents (52% in dog and monkey, 54% in human). Blood-to-plasma ratios were in the range of 0.7-1.8 (human 1.1-1.3). […] Based on results with non-radiolabeled I-57 in the dog, a significant amount of unchanged I-57 was renally eliminated (˜20% of dose).

CYP2C8 = CYP2C8 (Homo sapiens, UniProt P10632); experiment: CYP inhibition: CYP2C8; assay type: in vitro ADME; settings: I-57 concentrations of up to 100 μM
CYP2B6 = CYP2B6 (Homo sapiens, UniProt P20813); experiment: CYP inhibition: CYP2B6; assay type: in vitro ADME; settings: I-57 concentrations of up to 100 μM
CYP2B6, sequence (P20813 whole entry): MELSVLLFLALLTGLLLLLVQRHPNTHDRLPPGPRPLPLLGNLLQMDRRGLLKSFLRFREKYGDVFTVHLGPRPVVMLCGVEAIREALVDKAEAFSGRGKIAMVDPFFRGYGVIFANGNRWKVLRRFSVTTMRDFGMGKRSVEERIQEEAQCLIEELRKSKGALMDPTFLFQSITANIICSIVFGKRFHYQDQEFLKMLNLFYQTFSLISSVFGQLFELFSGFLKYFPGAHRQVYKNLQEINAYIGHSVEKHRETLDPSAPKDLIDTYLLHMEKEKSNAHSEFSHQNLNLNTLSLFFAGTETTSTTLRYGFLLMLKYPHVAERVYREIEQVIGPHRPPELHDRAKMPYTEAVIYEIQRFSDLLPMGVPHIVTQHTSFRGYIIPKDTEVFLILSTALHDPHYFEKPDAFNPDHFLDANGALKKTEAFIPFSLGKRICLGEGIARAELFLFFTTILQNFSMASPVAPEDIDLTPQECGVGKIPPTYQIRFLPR

T2 sequence (Q9UKS7 whole entry): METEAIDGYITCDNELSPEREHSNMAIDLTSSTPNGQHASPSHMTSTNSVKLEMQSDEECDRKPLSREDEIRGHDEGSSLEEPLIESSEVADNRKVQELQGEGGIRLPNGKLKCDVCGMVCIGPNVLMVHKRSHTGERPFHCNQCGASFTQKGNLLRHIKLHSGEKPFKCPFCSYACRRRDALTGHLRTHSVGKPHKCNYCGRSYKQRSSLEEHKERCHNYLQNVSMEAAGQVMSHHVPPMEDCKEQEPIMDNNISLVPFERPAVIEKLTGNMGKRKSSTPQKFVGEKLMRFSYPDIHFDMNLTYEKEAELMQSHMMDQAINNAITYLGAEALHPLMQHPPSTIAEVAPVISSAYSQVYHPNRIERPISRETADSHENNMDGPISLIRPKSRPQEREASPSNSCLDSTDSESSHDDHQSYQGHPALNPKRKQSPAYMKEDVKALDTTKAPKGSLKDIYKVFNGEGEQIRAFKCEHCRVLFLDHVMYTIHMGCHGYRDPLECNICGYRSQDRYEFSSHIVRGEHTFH
T2 sequence (Q96SW2 whole entry): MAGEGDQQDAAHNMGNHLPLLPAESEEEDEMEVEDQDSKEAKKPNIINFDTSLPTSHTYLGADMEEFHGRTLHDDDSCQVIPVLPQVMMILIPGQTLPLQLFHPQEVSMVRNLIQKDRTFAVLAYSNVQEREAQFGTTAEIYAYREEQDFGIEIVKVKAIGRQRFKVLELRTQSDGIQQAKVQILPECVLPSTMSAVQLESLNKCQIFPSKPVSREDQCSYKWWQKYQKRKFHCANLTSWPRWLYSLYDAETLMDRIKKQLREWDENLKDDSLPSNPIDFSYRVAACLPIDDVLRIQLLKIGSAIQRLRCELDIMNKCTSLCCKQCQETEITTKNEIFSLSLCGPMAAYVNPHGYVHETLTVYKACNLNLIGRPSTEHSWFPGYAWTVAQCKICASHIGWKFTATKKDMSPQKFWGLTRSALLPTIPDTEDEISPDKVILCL
T2 sequence (Q16531 whole entry partner): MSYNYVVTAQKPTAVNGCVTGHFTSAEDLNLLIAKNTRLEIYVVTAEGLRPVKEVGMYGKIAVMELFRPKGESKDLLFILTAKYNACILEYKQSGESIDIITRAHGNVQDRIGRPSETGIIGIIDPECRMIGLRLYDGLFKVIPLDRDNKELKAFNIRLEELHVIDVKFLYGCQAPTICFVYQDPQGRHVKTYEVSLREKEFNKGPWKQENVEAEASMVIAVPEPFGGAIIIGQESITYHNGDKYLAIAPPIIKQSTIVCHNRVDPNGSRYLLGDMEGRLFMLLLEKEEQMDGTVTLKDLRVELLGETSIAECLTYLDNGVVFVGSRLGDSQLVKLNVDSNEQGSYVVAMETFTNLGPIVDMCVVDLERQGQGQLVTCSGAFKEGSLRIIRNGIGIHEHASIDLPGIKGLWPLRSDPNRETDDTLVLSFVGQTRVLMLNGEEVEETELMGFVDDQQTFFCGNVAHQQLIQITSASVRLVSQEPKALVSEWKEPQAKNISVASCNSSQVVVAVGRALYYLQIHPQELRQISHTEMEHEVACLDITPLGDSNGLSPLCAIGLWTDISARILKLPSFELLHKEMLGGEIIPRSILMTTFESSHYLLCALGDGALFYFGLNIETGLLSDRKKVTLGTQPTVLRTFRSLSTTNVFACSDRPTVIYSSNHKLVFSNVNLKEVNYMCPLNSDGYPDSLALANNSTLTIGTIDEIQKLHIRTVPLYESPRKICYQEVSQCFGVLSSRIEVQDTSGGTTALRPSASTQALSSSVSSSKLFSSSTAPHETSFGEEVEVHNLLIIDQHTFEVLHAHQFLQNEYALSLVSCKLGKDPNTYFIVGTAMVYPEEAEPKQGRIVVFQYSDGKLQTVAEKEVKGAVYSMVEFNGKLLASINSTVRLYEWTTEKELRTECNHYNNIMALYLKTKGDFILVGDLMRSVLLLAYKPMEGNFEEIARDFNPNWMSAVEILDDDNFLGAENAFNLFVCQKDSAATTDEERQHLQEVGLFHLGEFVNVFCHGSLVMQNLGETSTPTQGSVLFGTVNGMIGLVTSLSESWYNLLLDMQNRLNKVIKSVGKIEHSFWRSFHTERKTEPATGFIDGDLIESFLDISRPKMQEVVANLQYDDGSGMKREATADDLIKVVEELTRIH
T1 sequence (Q96SL8 whole entry): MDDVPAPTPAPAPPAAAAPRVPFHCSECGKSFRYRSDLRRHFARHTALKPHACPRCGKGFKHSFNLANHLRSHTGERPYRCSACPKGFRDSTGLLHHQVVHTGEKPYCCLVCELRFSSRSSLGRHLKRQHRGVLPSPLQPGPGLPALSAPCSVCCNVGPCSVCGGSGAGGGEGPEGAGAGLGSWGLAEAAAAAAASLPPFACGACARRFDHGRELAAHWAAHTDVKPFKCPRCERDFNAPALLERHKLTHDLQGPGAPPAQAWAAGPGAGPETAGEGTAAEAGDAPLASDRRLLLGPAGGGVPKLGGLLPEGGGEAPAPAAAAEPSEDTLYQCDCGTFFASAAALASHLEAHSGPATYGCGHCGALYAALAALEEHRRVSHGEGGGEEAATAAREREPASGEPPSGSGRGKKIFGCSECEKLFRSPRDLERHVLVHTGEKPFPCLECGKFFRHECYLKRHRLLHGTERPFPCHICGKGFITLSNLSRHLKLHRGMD
CYP2C8, sequence (P10632 whole entry): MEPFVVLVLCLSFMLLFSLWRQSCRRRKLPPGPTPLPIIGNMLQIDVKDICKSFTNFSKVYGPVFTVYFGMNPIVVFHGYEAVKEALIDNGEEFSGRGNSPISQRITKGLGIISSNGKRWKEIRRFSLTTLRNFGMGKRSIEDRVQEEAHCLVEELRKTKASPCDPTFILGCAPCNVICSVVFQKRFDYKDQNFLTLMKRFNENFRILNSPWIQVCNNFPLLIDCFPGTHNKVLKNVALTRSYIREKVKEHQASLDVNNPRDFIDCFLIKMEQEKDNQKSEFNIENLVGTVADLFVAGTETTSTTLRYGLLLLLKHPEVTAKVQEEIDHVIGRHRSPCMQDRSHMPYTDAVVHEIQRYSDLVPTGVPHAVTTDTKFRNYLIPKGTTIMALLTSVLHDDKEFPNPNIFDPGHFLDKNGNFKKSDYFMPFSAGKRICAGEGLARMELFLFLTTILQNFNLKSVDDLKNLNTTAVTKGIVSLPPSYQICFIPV
CYP1A2, sequence (P05177 whole entry): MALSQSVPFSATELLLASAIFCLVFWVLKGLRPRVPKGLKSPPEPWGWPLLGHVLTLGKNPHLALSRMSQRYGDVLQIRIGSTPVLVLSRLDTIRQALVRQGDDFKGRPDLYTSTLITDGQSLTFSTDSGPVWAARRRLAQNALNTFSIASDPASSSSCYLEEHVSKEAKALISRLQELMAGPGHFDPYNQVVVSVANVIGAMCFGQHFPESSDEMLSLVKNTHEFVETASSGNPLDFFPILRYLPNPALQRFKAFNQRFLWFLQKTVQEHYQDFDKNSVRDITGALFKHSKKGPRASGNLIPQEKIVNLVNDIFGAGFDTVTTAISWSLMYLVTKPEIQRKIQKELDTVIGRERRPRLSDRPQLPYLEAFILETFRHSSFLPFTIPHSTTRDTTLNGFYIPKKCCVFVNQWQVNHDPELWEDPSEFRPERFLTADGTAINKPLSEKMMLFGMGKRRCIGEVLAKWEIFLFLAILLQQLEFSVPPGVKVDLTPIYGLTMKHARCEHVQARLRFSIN
PXR, sequence (O75469 whole entry): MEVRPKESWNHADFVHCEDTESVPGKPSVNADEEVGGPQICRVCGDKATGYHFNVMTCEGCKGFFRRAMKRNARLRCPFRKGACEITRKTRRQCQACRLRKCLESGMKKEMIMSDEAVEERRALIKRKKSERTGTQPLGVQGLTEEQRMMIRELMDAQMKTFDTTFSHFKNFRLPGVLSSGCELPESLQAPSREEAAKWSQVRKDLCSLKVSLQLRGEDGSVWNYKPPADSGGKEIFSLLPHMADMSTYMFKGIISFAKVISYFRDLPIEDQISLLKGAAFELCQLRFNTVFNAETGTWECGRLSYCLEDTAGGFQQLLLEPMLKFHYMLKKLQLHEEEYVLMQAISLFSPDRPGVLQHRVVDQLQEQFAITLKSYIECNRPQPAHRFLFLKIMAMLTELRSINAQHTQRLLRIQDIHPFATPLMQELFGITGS

O=C1CCC(N2Cc3cc(C4CCN(Cc5ccccc5)CC4)ccc3C2=O)C(=O)N1 (stereo not shown) [Compound I-57, 3-(5-(1-benzylpiperidin-4-yl)-1-oxoisoindolin-2-yl)piperidine-2,6-dione]
IFNγ production by IKZF2+ cells [1]: concomitant increase in IFNγ production | degradation of FIZ1 (FIZ1; 10 μM I-57, subsequent analyses): about 50% | degradation of FIZ1 (FIZ1; 293T cells, whole cell proteomic analysis): degraded | IKZF2 degradation (reduction of the percentage of IKZF2 positive Tregs) (IKZF2 [2]; peripheral blood): robust dose and exposure-dependent IKZF2 degradation | IKZF2 degradation (reduction of the percentage of IKZF2 positive Tregs) (IKZF2 [2]; tumor (MDA-MB231 xenografts)): robust dose and exposure-dependent IKZF2 degradation | time-dependent inhibition of CYP1A2 (CYP1A2): no apparent time-dependent inhibition | CYP enzyme mediating oxidative metabolism (CYP3A4): CYP3A4 was found to primarily mediate these reactions | CNS or respiratory signs [3]: no CNS or respiratory signs | reduction of IKZF2 positivity in tumor Tregs (IKZF2 [4]; flow cytometry, unbound exposure (AUCinf) 7 ng*h/mL): 31% | reduction of IKZF2 positivity in tumor Tregs (IKZF2 [4]; flow cytometry, unbound exposure (AUCinf) 30 ng*h/mL): 43% | reduction of IKZF2 positivity in tumor Tregs (IKZF2 [4]; flow cytometry, unbound exposure (AUCinf) 157 ng*h/mL): 56% | reduction of IKZF2 positivity in tumor Tregs (IKZF2 [4]; flow cytometry, unbound exposure (AUCinf) 3474 ng*h/mL): 75% | time of maximum effects on IKZF2 positive Tregs (IKZF2 [4]; post dose, hPBMC AdT model): 4 to 16 h | IKZF2 degradation (reduction of the percentage of IKZF2 positive Tregs) (IKZF2 [4]; tumor and peripheral blood, after 14 daily doses, flow cytometry): robust dose and exposure-dependent IKZF2 degradation | degradation of IKZF2 and selectivity over IKZF1, IKZF4 and GSPT1 (IKZF2 [5]): potent and specific degrader of IKZF2 | induction potential for CYP3A (PXR): low | binding to plasma protein (plasma protein): 54% | inhibition of CYP2C8 (CYP2C8): very little and no inhibition | inhibition of CYP2B6 (CYP2B6): very little and no inhibition
